Experimental data taken from patent publication US9309276B2, “Synthetic lipid A derivative” (University of Georgia Research Foundation, Inc., priority 2007, dated 2016).
pIC50: −log10 of the molar value. Where two headings read alike, the source gives them in different places.

Tests used:
Type in all cases: cell-based
human TLR2 = target: T1, human TLR2 (Homo sapiens, UniProt O60603); experiment: NF-κB activation in HEK 293T cells stably transfected with human TLR2; settings: 103/104 at 0.1, 1 and 10 μg mL−1; Pam3CysSK4 1 μg mL−1; 4 h
T1 construct: host or cells: HEK 293T
Method: (§1) Induction of NF-κB activation was determined in triplicate cultures of HEK 293T cells stably transfected with human or mouse (a) TLR4/MD2/CD14 and (b) TLR2 and transiently transfected with pELAM-Luc and pRL-TK plasmids. Forty-four h post-transfection, cells were treated with (B) E. coli LPS (10 ng mL^−1), (C) Pam3CysSK4 (1 μg mL^−1), (D, E and F) 103 (0.1, 1 and 10 μg mL^−1, respectively), (G, H and I) 104 (0.1, 1 and 10 μg mL^−1, respectively) or (A) were left untreated (control). Forty-eight h post-transfection, NF-κB activation was determined by firefly luciferase activity relative to Renilla luciferase activity. n.a. indicates not analyzed.
(§2) To examine the ability of the synthetic compounds to induce activation of NF-κB, HEK 293T cells were employed that were stably transfected with various immune receptors and transiently transfected with a plasmid containing the reporter gene pELAM-Luc (NF-κB-dependent firefly luciferase reporter vector) and a plasmid containing the control gene pRL-TK (Renilla luciferase control reporter vector) (FIG. 11). […] Although compound 104 is a weak activator of mouse TLR4, it could not induce the secretion of cytokines.
(§3) The day before transfection, HEK 293T wild type cells and HEK 293T cells stably transfected with human and murine TLR4/MD2/CD14 and human and murine TLR2 were plated in 96-well tissue culture plates (16,000 cells/well). The next day, cells were transiently transfected using PolyFect Transfection Reagent (Qiagen) with expression plasmids pELAM-Luc (NF-κB-dependent firefly luciferase reporter plasmid, 50 ng/well) (Chow et al., J. Biol. Chem., 1999, 274, 10689-10692) and pRL-TK (Renilla luciferase control reporter vector, 1 ng/well; Promega) as an internal control to normalize experimental variations. […] The luciferase activity was measured using the Dual-Luciferase Reporter Assay System (Promega) according to the manufacturer's instructions and a combination luminometer/fluorometer microplate reader (BMG Labtech). […]

mouse TLR2 = target: T2, mouse TLR2 (Mus musculus, UniProt Q9QUN7); experiment: NF-κB activation in HEK 293T cells stably transfected with mouse TLR2; settings: 103/104 at 0.1, 1 and 10 μg mL−1; Pam3CysSK4 1 μg mL−1; 4 h
T2 construct: host or cells: HEK 293T
Method: as §1, §2, §3

MM6 cells = experiment: Antagonism of E. coli LPS-induced TNF-α production in human monocytic MM6 cells; settings: 5.5 h, read-out: IC50 (concentration producing 50% inhibition) of TNF production induced by E. coli LPS
Method: TNF-α concentrations were measured after preincubation of MM6 cells with increasing concentrations of 103 or 104 as indicated for 1 h at 37° C., followed by 5.5 h of incubation with E. coli LPS (1 ng mL^−1). Results are expressed as percentage of cytokine concentration of control cells, which are incubated only with E. coli LPS.
Compounds that lack proinflammatory properties may still interact with relevant receptors (TLR4/MD2/CD14), and thereby inhibit TNF-α production induced by E. coli LPS. […]
(§4) On the day of the exposure assay differentiated MM6 cells were harvested by centrifugation and suspended (10^6 cells mL^−1) in tissue culture tubes and RAW 264.7 γNO(−) cells were plated as 2×10^5 cells/well in 96-well tissue culture plates (Nunc). […] Concentrations of human TNF-α protein in culture supernatants were determined by a solid phase sandwich ELISA. […] After the reaction was stopped by adding peroxidase stop solution (Kirkegaard & Perry Laboratories), the absorbance was measured at 405 nm using a microplate reader (BMG Labtech). Cytokine DuoSet ELISA Development Kits (R&D Systems) were used for the cytokine quantification of mouse TNF-α, mouse IL-6, mouse IP-10 and mouse IL-1β according to the manufacturer's instructions. The absorbance was measured at 450 nm with wavelength correction set to 540 nm. Concentrations of mouse IFN-β in culture supernatants were determined as follows. […]

RAW cells = experiment: Antagonism of E. coli LPS-induced TNF-α production in mouse macrophages (RAW cells); settings: mouse cell line, E. coli LPS (10 ng/mL), 5.5 h
Method: Compounds that lack proinflammatory properties may still interact with relevant receptors (TLR4/MD2/CD14), and thereby inhibit TNF-α production induced by E. coli LPS. Thus, the human monocytic cells and mouse macrophages (MM6 and RAW cells) were exposed to a combination of E. coli LPS (10 ng/mL) and a wide range of concentrations of lipid As 103 and 104 and, after an incubation time of 5.5 h, the supernatant was examined for human or mouse TNF-a.
as §4

T1 sequence (O60603 21-784): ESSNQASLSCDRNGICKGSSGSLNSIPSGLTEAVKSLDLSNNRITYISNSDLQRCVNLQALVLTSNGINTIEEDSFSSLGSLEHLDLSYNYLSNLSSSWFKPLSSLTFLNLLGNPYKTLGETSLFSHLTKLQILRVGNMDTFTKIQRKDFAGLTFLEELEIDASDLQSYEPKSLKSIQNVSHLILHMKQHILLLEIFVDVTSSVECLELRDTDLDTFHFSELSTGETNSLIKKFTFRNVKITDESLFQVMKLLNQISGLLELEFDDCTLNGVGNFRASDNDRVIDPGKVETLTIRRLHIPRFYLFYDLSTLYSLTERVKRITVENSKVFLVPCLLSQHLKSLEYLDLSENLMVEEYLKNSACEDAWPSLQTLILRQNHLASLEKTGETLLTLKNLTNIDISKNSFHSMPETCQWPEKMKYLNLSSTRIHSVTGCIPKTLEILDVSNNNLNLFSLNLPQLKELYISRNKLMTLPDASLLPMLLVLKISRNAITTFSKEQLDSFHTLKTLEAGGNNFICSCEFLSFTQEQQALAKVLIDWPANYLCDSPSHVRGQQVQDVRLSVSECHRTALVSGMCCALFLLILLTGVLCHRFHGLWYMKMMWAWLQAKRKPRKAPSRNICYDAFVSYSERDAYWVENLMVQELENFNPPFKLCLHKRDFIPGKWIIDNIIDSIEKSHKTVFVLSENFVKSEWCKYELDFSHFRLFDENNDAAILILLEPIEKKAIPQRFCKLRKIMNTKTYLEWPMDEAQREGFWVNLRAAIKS
T2 sequence (Q9QUN7 25-784): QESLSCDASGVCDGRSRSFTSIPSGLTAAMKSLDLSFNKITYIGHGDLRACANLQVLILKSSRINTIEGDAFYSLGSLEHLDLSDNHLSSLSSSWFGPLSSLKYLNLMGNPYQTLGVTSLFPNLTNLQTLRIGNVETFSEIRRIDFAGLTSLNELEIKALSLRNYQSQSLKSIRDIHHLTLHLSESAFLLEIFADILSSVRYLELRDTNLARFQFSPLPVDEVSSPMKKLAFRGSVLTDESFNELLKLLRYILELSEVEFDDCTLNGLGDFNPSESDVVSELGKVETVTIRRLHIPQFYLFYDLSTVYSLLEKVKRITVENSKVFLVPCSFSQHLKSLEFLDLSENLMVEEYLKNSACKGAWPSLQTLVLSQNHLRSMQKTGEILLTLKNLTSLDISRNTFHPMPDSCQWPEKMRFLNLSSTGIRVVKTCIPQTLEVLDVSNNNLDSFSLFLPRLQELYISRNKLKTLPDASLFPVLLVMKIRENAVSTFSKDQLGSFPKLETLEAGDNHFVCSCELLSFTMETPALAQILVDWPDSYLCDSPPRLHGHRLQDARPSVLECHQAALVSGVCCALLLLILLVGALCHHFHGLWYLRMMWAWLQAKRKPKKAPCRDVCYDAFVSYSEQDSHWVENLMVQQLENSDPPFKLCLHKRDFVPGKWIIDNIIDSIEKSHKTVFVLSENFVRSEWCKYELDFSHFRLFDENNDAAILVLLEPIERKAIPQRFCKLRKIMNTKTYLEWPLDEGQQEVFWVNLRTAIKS

Structure (SMILES) | NF-κB activation, human TLR2 (human TLR2) | NF-κB activation, mouse TLR2 (mouse TLR2) | pIC50 (MM6 cells; human MM6 cells, E. coli LPS (10 ng/mL)) | inhibition of TNF-α production induced by E. coli LPS (RAW cells) | pIC50 (MM6 cells; Homo sapiens)
CCCCCCCCCCCCCCCC(=O)O[C@H](CCCCCCCCCCCC(C)C)CC(=O)N[C@H]1[C@H](OC[C@H]2O[C@H](OP(=O)(O)O)[C@H](NC(=O)C[C@H](O)CCCCCCCCCCCC(C)C)[C@@H](OC(=O)C[C@H](O)CCCCCCCCCCCCC)[C@@H]2O)O[C@H](CO)[C@@H](O)[C@@H]1O [Compound 103, 6-O-{2-Deoxy-2-[(R)-3-hexadecanoyloxy-15-methyl-hexadecanoylamino]-β-D-glucopyranosyl}-3-O—[(R)-3-hydroxy-hexadecanoyl]-2-deoxy-2-[(R)-3-hydroxy-15-methyl-hexadecanoylamino]-α-D-glucopyranose 1-phosphate] | No activation of NF-κB | No activation of NF-κB | 6.80 | marginal inhibition | –
CCCCCCCCCCCCCCCC(=O)O[C@H](CCCCCCCCCCCC(C)C)CC(=O)N[C@H]1[C@H](OC[C@H]2O[C@H](OP(=O)(O)O)[C@H](NC(=O)C[C@H](O)CCCCCCCCCCCC(C)C)[C@@H](O)[C@@H]2O)O[C@H](CO)[C@@H](O)[C@@H]1ONC(=O)C[C@H](O)CCCCCCCCCC(C)C [Compound 104, 6-O-{2-Deoxy-2-[(R)-3-hexadecanoyloxy-15-methyl-hexadecanoylamino]-3-O—[(R)-3-hydroxy-13-methyl-tetradecanoylamino]-β-D-glucopyranosyl}-2-deoxy-2-[(R)-3-hydroxy-15-methyl-hexadecanoylamino]-α-D-glucopyranose 1-phosphate] | No activation of NF-κB | No activation of NF-κB | – | marginal inhibition | 5.49
